The text below walks through data of patent US20110092476A1, “Bicycloheteroaryl compounds as P2X7 modulators and uses thereof” (Renovis, Inc., priority 2006, published 2011).

One series concerns the target T1, P2X7 receptor (Homo sapiens, UniProt Q99572).
T1 construct: host or cells: THP-1 cells differentiated with LPS and IFN-γ
T1 sequence (Q99572 1-595): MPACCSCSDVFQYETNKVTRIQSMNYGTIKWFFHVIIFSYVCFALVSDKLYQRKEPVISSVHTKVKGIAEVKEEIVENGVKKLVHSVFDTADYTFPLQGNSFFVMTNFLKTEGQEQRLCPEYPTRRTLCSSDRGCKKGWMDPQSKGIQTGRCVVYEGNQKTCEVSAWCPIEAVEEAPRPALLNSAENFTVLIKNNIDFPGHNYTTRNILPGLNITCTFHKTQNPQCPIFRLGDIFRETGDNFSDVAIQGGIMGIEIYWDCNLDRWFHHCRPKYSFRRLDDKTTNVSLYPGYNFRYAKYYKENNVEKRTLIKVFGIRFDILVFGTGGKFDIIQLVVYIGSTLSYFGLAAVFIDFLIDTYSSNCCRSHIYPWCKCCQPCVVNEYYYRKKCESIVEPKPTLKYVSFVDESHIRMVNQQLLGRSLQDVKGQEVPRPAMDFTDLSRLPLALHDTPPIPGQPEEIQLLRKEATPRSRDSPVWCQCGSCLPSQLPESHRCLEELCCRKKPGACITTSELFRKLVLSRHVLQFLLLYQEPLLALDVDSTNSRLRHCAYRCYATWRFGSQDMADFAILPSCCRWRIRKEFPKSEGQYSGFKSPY
Kind of series: IL-1β release assay in differentiated THP-1 cells stimulated with BzATP (Example 9). It is filed as cell-based. As to conditions: BzATP 250 uM; for inhibition at 0.3 µM: differentiated THP-1 cells, read-out: IL-1β % Inhib. @ 0.3 or 0.1 uM; for IC50: THP-1 cells, IL-1β by ELISA. The method in brief:
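THP-1 cells differentiated 16 h with 100 ng/mL LPS and 100 ng/mL IFN-γ, primed 2 h with fresh LPS, pretreated 30 min with compound, then stimulated 45 min with 250 uM BzATP (final). Supernatant IL-1β measured by ELISA; background-adjusted percent inhibition fitted to a four-parameter logistic for IC50.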
Background: In an ELISA, binding on a coated surface is turned into a signal by an enzyme label.

The nature of series [1]: Determination of aqueous (kinetic) solubility. The following applies: aqueous buffer, kinetic from dmso stock, buffer pH 7.4. It is filed as physicochemical. As to the method:
The mixture was vortexed for 1 hour and equilibrated overnight at room temperature. The mixture was filtered through a saturated filter and the filtrate was analyzed by LC/MS/MS.
For the purpose of Table 5, solubility of each compound is expressed as follows: […]

Series [2] is described as follows: Half-life in human liver microsomes (HLM). As to conditions: pH 7.4. On the technique in general: Microsomes from liver hold many membrane-bound enzymes, among them those of drug oxidation.
Method: Test compounds (1 μM) are incubated with 3.3 mM MgCl2 and 0.78 mg/mL HLM (HL101) in 100 mM potassium phosphate buffer (pH 7.4) at 37° C. on the 96-deep well plate. The reaction mixture is split into two groups, a non-P450 and a P450 group. NADPH is only added to the reaction mixture of the P450 group. An aliquot of samples of P450 group is collected at 0, 10, 30, and 60 min time point, where 0 min time point indicated the time when NADPH is added into the reaction mixture of P450 group. […] Collected aliquots are extracted with acetonitrile solution containing an internal standard. […] The compound concentration in supernatant is measured by LC/MS/MS system.
The half-life value is obtained by plotting the natural logarithm of the peak area ratio of compounds/internal standard versus time. The slope of the line of best fit through the points yields the rate of metabolism (k). This is converted to a half-life value using following equations:

Values after ≈ are worked out from the molar mass of the structure shown. Read-outs that look alike come from different tables or passages of the source.

In general, solubility refers to the dissolved amount per volume that the medium holds. High values mean a readily soluble substance, low ones a poorly soluble substance. Turning to `O=C(Cc1ccc(C(F)(F)F)cc1)Nc1cccc2c(=O)n(CCO)ccc12` [Compound 7], at P2X7 receptor (0.3 μM compound (symbols +)), the inhibition at 0.3 µM is 26 to 50%. The compound further showed a solubility in series [1] of less than 25 µM.
On the same counts, the results for `O=C(Cc1ccc(Cl)cc1Cl)Nc1cccc2c(=O)n(CCO)ccc12` [Compound 69] are greater than 76% and less than 25 µM.
With `O=C(Cc1ccc(Cl)c(Cl)c1)Nc1cccc2c(=O)n(C(CO)CO)ccc12` [Compound 80], at P2X7 receptor (0.3 μM compound (symbols +)), the inhibition at 0.3 µM was greater than 76%. This compound also returned a solubility in series [1] greater than 75 µM.
By half-life is commonly meant how long it takes for the measured level to halve. Lower therefore signals rapid decline. As to `O=C(Cc1ccc(Cl)c(C(F)(F)F)c1)Nc1cccc2c(=O)n(C[C@@H]3CCCN3)ccc12` [Compound 232, 2-(4-Chloro-3-trifluoromethyl-phenyl)-N-(1-oxo-2-(S)-1-pyrrolidin-2-ylmethyl-1,2-dihydro-isoquinolin-5-yl)-acetamide], on P2X7 receptor (0.3 μM compound, "+" symbols), the inhibition at 0.3 µM is greater than 76%. The half-life at 1 μM in series [2] is 7.37 h.
In the case of `C[C@@H](C(N)=O)n1ccc2c(NC(=O)Cc3ccc(Cl)cc3C(F)(F)F)cccc2c1=O` [Compound 237, (S)-2-{5-[2-(4-Chloro-2-trifluoromethyl-phenyl)-acetylamino]-1-oxo-1H-isoquinolin-2-yl}-propionamide], on P2X7 receptor (0.3 μM compound, "+" symbols), the inhibition at 0.3 µM is greater than 76%. Besides, in series [1], the solubility fell in the range of 26 to 50 µM (≈ 11.7 to 22.6 µg/mL).
For the compound `NC(=O)Cn1ccc2c(NC(=O)Cc3ccc(Cl)c(C(F)(F)F)c3)cccc2c1=O` [Compound 249, 2-{5-[2-(4-Chloro-3-trifluoromethyl-phenyl)-acetylamino]-1-oxo-1H-isoquinolin-2-yl}-acetamide], the inhibition at 0.3 µM at P2X7 receptor (0.3 μM compound, "+" symbols) is greater than 76%. This compound also came in with a solubility in series [1] of less than 25 µM.
As to `NC(=O)[C@H](CO)n1ccc2c(NC(=O)Cc3ccc(Cl)c(C(F)(F)F)c3)cccc2c1=O` [Compound 250, (S)-2-{5-[2-(4-Chloro-3-trifluoromethyl-phenyl)-acetylamino]-1-oxo-1H-isoquinolin-2-yl}-3-hydroxy-propionamide], on P2X7 receptor (0.3 μM compound, "+" symbols), the inhibition at 0.3 µM was greater than 76%. In series [1], this compound came in with a solubility greater than 75 µM. Also, the half-life at 1 μM in series [2] was 0.9 h.
Regarding `C[C@H](C(N)=O)n1ccc2c(NC(=O)[C@H](C)c3ccc(Cl)cc3)cccc2c1=O` [Compound 262], the inhibition at 0.3 µM on P2X7 receptor (0.3 μM compound, "+" symbols) was greater than 76%. In addition, in series [1], the solubility was greater than 75 µM.
Taken in the same sequence, the figures for `C[C@@H](C(=O)Nc1cccc2c(=O)n([C@@H](C)C(N)=O)ccc12)c1ccc(Cl)cc1` [Compound 266] were greater than 76% and greater than 75 µM.
In the case of `CC(C)[C@H](C(N)=O)n1ccc2c(NC(=O)[C@@H](C)c3ccc(Cl)cc3)cccc2c1=O` [Compound 283], the inhibition at 0.3 µM on P2X7 receptor (0.3 μM compound, "+" symbols) was greater than 76%. This compound also came in with a solubility in series [1] greater than 75 µM.
With `CC(C)[C@H](C(N)=O)n1ccc2c(NC(=O)[C@H](C)c3ccc(Cl)cc3)cccc2c1=O` [Compound 284, (R)-2-{5-[(R)-2-(4-Chloro-phenyl)-propionylamino]-1-oxo-1H-isoquinolin-2-yl}-3-methyl-butyramide], the inhibition at 0.3 µM on P2X7 receptor (0.3 μM compound, "+" symbols) was greater than 76%. This compound gave a solubility in series [1] greater than 75 µM.
On the same counts, the results for `C[C@H](C(N)=O)n1ccc2c(NC(=O)Cc3ccc(Cl)c(F)c3)cccc2c1=O` [Compound 300] are greater than 76% and less than 25 µM.
Taken in the same sequence, the figures for `C[C@H](C(N)=O)n1ccc2c(NC(=O)Cc3ccc(F)c(Cl)c3)cccc2c1=O` [Compound 301] were greater than 76% and 26 to 50 µM (≈ 10.4 to 20.1 µg/mL).
On to `C[C@H](C(N)=O)n1ccc2c(NC(=O)Cc3ccc(F)c(C(F)(F)F)c3)cccc2c1=O` [Compound 304], for which the inhibition at 0.3 µM on P2X7 receptor (0.3 μM compound, "+" symbols) was greater than 76%. This compound returned a solubility in series [1] of less than 25 µM.
With `C[C@H](C(N)=O)n1ccc2c(NC(=O)Cc3ccc(C(F)(F)F)c(F)c3)cccc2c1=O` [Compound 306], the inhibition at 0.3 µM on P2X7 receptor (0.3 μM compound, "+" symbols) was greater than 76%. The compound further displayed a solubility in series [1] of less than 25 µM.
On the same counts, the results for `C[C@H](C(N)=O)n1ccc2c(NC(=O)Cc3ccc(F)c(Br)c3)cccc2c1=O` [Compound 307] are greater than 76% and less than 25 µM.
On the same counts, the results for `C[C@H](CO)n1ccc2c(NC(=O)[C@H](C)c3ccc(Cl)c(Cl)c3)cccc2c1=O` [Compound 320] are greater than 76% and 51 to 75 µM (≈ 21.4 to 31.4 µg/mL).
In the case of `C[C@H](CO)n1ccc2c(NC(=O)Cc3ccc(Cl)c(Cl)c3)cccc2c1=O` [Compound 333, 2-(3,4-Dichloro-phenyl)-N-[2-((R)-2-hydroxy-1-methyl-ethyl)-1-oxo-1,2-dihydro-isoquinolin-5-yl]-acetamide], the inhibition at 0.3 µM at P2X7 receptor (0.3 μM compound, "+" symbols) was greater than 76%. This compound came in with a solubility in series [1] greater than 75 µM.
On to `CC(C(=O)Nc1cccc2c(=O)n([C@H](C)C(N)=O)ccc12)c1cccc(C(F)(F)F)c1F` (stereo partly drawn) [Compound 337], for which, on P2X7 receptor (0.3 μM compound, "+" symbols), the inhibition at 0.3 µM was greater than 76%. In addition, the solubility in series [1] was less than 25 µM.
On the same counts, the results for `C[C@H](CO)n1ccc2c(NC(=O)Cc3ccc(C(F)(F)F)cc3C(F)(F)F)cccc2c1=O` [Compound 361] are greater than 76% and greater than 75 µM.
On to `O=C(Cc1cccc(C(F)(F)F)c1F)Nc1c(NCCO)ccc2c(=O)n(CCO)ccc12` [Compound 385, 2-(2-Fluoro-3-trifluoromethyl-phenyl)-N-[2-(2-hydroxy-ethyl)-6-(2-hydroxy-ethylamino)-1-oxo-1,2-dihydro-isoquinolin-5-yl]-acetamide], for which the inhibition at 0.3 µM on P2X7 receptor (0.3 μM compound, "+" symbols) lay within 0 to 25%.
Still for that read-out and setting: the figure for `O=C(Cc1cccc(C(F)(F)F)c1F)Nc1c(Cl)ccc2c(=O)n(CCO)ccc12` [Compound 387] is greater than 76%.
Broadly, the IC50 is the concentration that inhibits the measured activity by half. A higher IC50 goes with a need for much substance. Take `CC(=O)NCCn1ccc2c(NC(=O)Cc3ccc(C(F)(F)F)c(F)c3)cccc2c1=O` [Compound 390]: the inhibition at 0.3 µM on P2X7 receptor (0.3 μM compound, "+" symbols) fell in the range of 0 to 25%. In addition, the half-maximal inhibitory concentration (IC50) against P2X7 receptor is greater than 1000 nM.
Take `CC(=O)NCCn1ccc2c(NC(=O)Cc3ccc(Cl)c(C(F)(F)F)c3)cccc2c1=O` [Compound 391]: the inhibition at 0.3 µM at P2X7 receptor (0.3 μM compound, "+" symbols) was greater than 76%. On P2X7 receptor, this compound gave a half-inhibitory concentration (IC50) of 0.39 nM.
`CC(=O)NCCn1ccc2c(NC(=O)Cc3ccc(F)c(F)c3)cccc2c1=O` [Compound 392]: the inhibition at 0.3 µM on P2X7 receptor (0.3 μM compound, "+" symbols) is greater than 76%. At P2X7 receptor, this compound registered an IC50 of 0.74 nM.
On to `Cc1ccc2c(=O)n([C@H](C)CO)ccc2c1NC(=O)Cc1cccc(C(F)(F)F)c1F` [Compound 395], for which the inhibition at 0.3 µM at P2X7 receptor (0.3 μM compound, "+" symbols) is greater than 76%. Besides, the half-inhibitory concentration (IC50) against P2X7 receptor came out at 9.44 nM. This compound also returned a solubility in series [1] greater than 75 µM.
With `Cc1ccc2c(=O)n(CCO)ccc2c1NC(=O)Cc1cccc(C(F)(F)F)c1F` [Compound 396], the inhibition at 0.3 µM on P2X7 receptor (0.3 μM compound, "+" symbols) was greater than 76%. At P2X7 receptor, this compound returned an IC50 of 10.7 nM.
As for `Cc1ccc2c(=O)n([C@H](C)CO)ccc2c1NC(=O)Cc1ccc(C(F)(F)F)cc1` [Compound 397], the inhibition at 0.3 µM on P2X7 receptor (0.3 μM compound, "+" symbols) was greater than 76%. At P2X7 receptor, this compound registered an IC50 of 65.1 nM. In series [1], this compound registered a solubility of 51 to 75 µM (≈ 21.3 to 31.4 µg/mL).
At P2X7 receptor, `Cc1ccc2c(=O)n([C@H](C)CO)ccc2c1NC(=O)Cc1ccc(Cl)c(F)c1` [Compound 398] displayed an IC50 of 5.38 nM. Besides, the inhibition at 0.3 µM on P2X7 receptor ("+" symbols = compound at 0.3 μM) was greater than 76%. In addition, the solubility in series [1] was greater than 75 µM.
